Tests used:
[1] = Stability in human microsomes; assay type: ADME, Microsome
[2] = Volume of distribution in Sprague-Dawley rat at 1 mg/kg, iv and 2 mg/kg, po; assay type: ADME, organism-based; conditions: in vivo
[3] = AUC in Sprague-Dawley rat at 2 mg/kg, po; assay type: ADME, organism-based; design: dose 2 mg/kg, route oral; conditions: plasma
[4] = Plasma clearance in Sprague-Dawley rat at 1 mg/kg, iv and 2 mg/kg, po; assay type: ADME, organism-based
Rattus norvegicus = assay: Oral bioavailability in Sprague-Dawley rat at 2 mg/kg; assay type: ADME, organism-based; conditions: in vivo
[5] = Cmax in Sprague-Dawley rat at 2 mg/kg, po; assay type: ADME, organism-based; design: dose 2 mg/kg, route oral; conditions: in vivo
[6] = Half life in Sprague-Dawley rat at 1 mg/kg, iv and 2 mg/kg, po; assay type: ADME, organism-based; conditions: in vivo

| Stability [1] | SMILES | Vd [2] | AUC [3] | clearance [4] | F (Rattus norvegicus) | Cmax [5] | half-life [6] |
| --- | --- | --- | --- | --- | --- | --- | --- |
| Unstable | Oc1onc(-c2ccnc(Nc3ccc(N4CCOCC4)cc3)c2)c1-c1ccc(F)cc1 | – | – | – | – | – | – |
| – | Cc1ncn(-c2ccc(Nc3cc(-c4nocc4-c4cnn(C)c4)ccn3)cc2)n1 | 0.4 L/kg | 5 µM·h | 6 mL/min/kg | 37% | 1500 nM | 1.5 h |
| – | Cc1ncn(-c2ccc(Nc3cc(-c4nocc4-c4cn[nH]c4C)ccn3)cc2)n1 | 0.4 L/kg | 0.7 µM·h | 13 mL/min/kg | 12% | 300 nM | 1.8 h |
